Patent US20060069132A1, “Azolecarboxamide herbicides” (priority 2004, published 2006)

Columns and labels:
Surinam grass = assay: Test B pre-/postemergence herbicide test; type: in vivo, Urochloa decumbens
In short: (§1)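 Plants compared with untreated controls 13–15 days post-treatment and given a visual 0–100 injury score. Applications: preemergence to seeds; postemergence at 1- to 4-leaf (2–18 cm); paddy species flooded, 2-leaf stage. Vehicle non-phytotoxic, surfactant included.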

wild oat = assay: Test B postemergence herbicide test; type: in vivo, Avena fatua
In short: (§2)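 Scale 0–100: zero equals no visible effect, 100 complete control, judged by eye relative to controls. Timing: 13 to 15 days in greenhouse post-treatment. Growth stage at spraying: two leaves (paddy) or one to four leaves, 2–18 cm (postemergence).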

pigweed = assay: Test B pre-/postemergence herbicide test; type: in vivo, Amaranthus retroflexus
In short: as §1

lambsquarters = assay: Test B pre-/postemergence herbicide test; type: in vivo, Chenopodium album
In short: as §1

ducksalad = assay: Test B flooded paddy test; type: in vivo, Heteranthera limosa; conditions: 1000 g ai/ha, scale 0 to 100 (0 no effect, 100 complete control)
In short: as §2

cocklebur = assay: Test B pre-/postemergence herbicide test; type: in vivo, Xanthium strumarium; conditions: for Plant response rating (0 to 100 scale), Cocklebur: 0 is no effect
In short: (§3)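 Formulation: non-phytotoxic solvent mix with surfactant. Timing: preemergence on seed and postemergence on 2–18 cm plants, applied concurrently. Readout after 13–15 d greenhouse: visual 0–100 control rating against controls.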

wheat = assay: Test B postemergence herbicide test; type: in vivo, Triticum aestivum; design: key to Wheat plant response rating: 0 = no effect, 100 = complete control
In short: as §2

morningglory = assay: Test B pre-/postemergence herbicide test; type: in vivo, Ipomoea coccinea; conditions: for Plant response rating (0 to 100 scale), Morningglory: 0 is no effect
In short: as §3

barnyardgrass [1] = assay: Test B pre-/postemergence herbicide test; type: in vivo, Echinochloa crus-galli
In short: as §3

rice = assay: Test B flooded paddy test; type: in vivo, Oryza sativa; conditions: 1000 g ai/ha, scale 0 to 100 (0 no effect, 100 complete control)
In short: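 Formulated test chemicals went onto postemergence plants measuring 2 to 18 cm, at one to four leaves. For the paddy assay, species had reached two leaves. Scoring took place 13–15 days later by eye, relative to untreated plants, using 0 for no effect up to 100 for full control.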

blackgrass = assay: Test B postemergence herbicide test; type: in vivo, Alopecurus myosuroides
In short: as §2

giant foxtail = assay: Test B pre-/postemergence herbicide test; type: in vivo, Setaria faberi
In short: as §1

barnyardgrass [2] = assay: Test B flooded paddy test; type: in vivo, Echinochloa crus-galli; conditions: 1000 g ai/ha, scale 0 to 100 (0 no effect, 100 complete control)
In short: as §2

velvetleaf = assay: Test B pre-/postemergence herbicide test; type: in vivo, Abutilon theophrasti; conditions: for Plant response rating (0 to 100 scale), Velvetleaf / Plant response rating, Velvetleaf: preemergence
In short: as §1

[3] = tested on: small flower umbrella sedge; assay: Test B flooded paddy test; type: in vivo, Cyperus difformis; conditions: 1000 g ai/ha, scale 0 to 100 (0 no effect, 100 complete control)
In short: as §2

[4] = 125 g ai/ha, 0 is no effect, 100 is complete control, preemergence
[5] = Postemergence, 500 g ai/ha, scale 0 (no effect) to 100 (complete control)
[6] = postemergence, 125 g ai/ha, scale 0 to 100
[7] = 125 g ai/ha, 100 is complete control, preemergence
[8] = 500 g ai/ha, scale 0 to 100, 0 no effect, 100 complete control, preemergence
[9] = Postemergence, 125 g ai/ha, scale 0 (no effect) to 100 (complete control)
[10] = 125 g ai/ha, 0 is no effect, 100 is complete control
[11] = 500 g ai/ha, visual rating 0-100, 0 no effect, 100 complete control, preemergence
[12] = postemergence, 125 g ai/ha, visual rating, scale 0 (no effect) to 100 (complete control)
[13] = postemergence, 500 g ai/ha, visual rating, scale 0 (no effect) to 100 (complete control)
[14] = preemergence, 125 g ai/ha, 0 to 100 scale, 0 is no effect, 100 is complete control
[15] = 125 g ai/ha, 0 = no effect, 100 = complete control, preemergence
[16] = 125 g ai/ha, visual rating, scale 0 (no effect) to 100 (complete control), postemergence
[17] = 500 g ai/ha, visual rating, 0 = no effect, 100 = complete control, preemergence
[18] = postemergence, 500 g ai/ha, scale 0 to 100, 0 is no effect, 100 is complete control

Structure (SMILES): C=CCOc1cccc(NC(=O)c2cc(C(C)(C)C)nn2CC)c1 [Compound 412]
- Plant response rating (0 to 100 scale), Surinam Grass (Surinam grass; [4]): 0
- Surinam Grass plant response rating (Surinam grass; [5]): 30
- Surinam Grass plant response rating (Surinam grass; [6]): 0
- Oat, Wild plant response rating (wild oat; [5]): 40
- Oat, Wild plant response rating (wild oat; [6]): 30
- Plant response rating (0 to 100 scale), Pigweed (pigweed; [4]): 50
- Pigweed plant response rating (pigweed; [5]): 100
- Pigweed plant response rating (pigweed; [6]): 90
- Plant response rating (0 to 100 scale), Lambsquarters (lambsquarters; [4]): 0
- Lambsquarters plant response rating (lambsquarters; [5]): 100
- Lambsquarters plant response rating (lambsquarters; [6]): 60
- Ducksalad plant response rating (ducksalad): 80
- Plant response rating (0 to 100 scale), Cocklebur (cocklebur; [7]): 0
- Cocklebur plant response rating (cocklebur; [5]): 30
- Cocklebur plant response rating (cocklebur; [6]): 0
- Wheat plant response rating (wheat; [8]): 20
- Wheat plant response rating (wheat; [5]): 20
- Wheat plant response rating (wheat; [6]): 10
- Plant response rating (0 to 100 scale), Morningglory (morningglory; [7]): 0
- Morningglory plant response rating (morningglory; [5]): 0
- Morningglory plant response rating (morningglory; [6]): 0
- Plant response rating (0 to 100 scale), Barnyardgrass (barnyardgrass [1]; [4]): 40
- Barnyardgrass plant response rating (barnyardgrass [1]; [9]): 0
- Barnyardgrass plant response rating (barnyardgrass [1]; [5]): 0
- Rice plant response rating (rice): 40
- Blackgrass plant response rating (blackgrass; [5]): 40
- Blackgrass plant response rating (blackgrass; [6]): 40
- Plant response rating (0 to 100 scale), Foxtail, Giant (giant foxtail; [4]): 30
- Foxtail, Giant plant response rating (giant foxtail; [5]): 30
- Foxtail, Giant plant response rating (giant foxtail; [6]): 30
- Barnyardgrass plant response rating (barnyardgrass [2]): 40
- Plant response rating (0 to 100 scale), Velvetleaf (velvetleaf; [10]): 0
- Velvetleaf plant response rating (velvetleaf; [5]): 10
- Velvetleaf plant response rating (velvetleaf; [6]): 0
- Sedge, Umbrella plant response rating [3]: 90

Structure (SMILES): CCN(CC)C(=O)c1cccc(NC(=O)c2nn(C(C)(C)C)nc2C)c1 [Compound 418]
- Plant response rating (0 to 100 scale), Surinam Grass (Surinam grass; [4]): 90
- Surinam Grass plant response rating (Surinam grass; [5]): 20
- Surinam Grass plant response rating (Surinam grass; [6]): 20
- Oat, Wild plant response rating (wild oat; [5]): 10
- Oat, Wild plant response rating (wild oat; [6]): 0
- Plant response rating (0 to 100 scale), Pigweed (pigweed; [4]): 100
- Pigweed plant response rating (pigweed; [5]): 80
- Pigweed plant response rating (pigweed; [6]): 70
- Plant response rating (0 to 100 scale), Lambsquarters (lambsquarters; [4]): 100
- Lambsquarters plant response rating (lambsquarters; [5]): 90
- Lambsquarters plant response rating (lambsquarters; [6]): 60
- Ducksalad plant response rating (ducksalad): 70
- Plant response rating (0 to 100 scale), Cocklebur (cocklebur; [7]): 0
- Cocklebur plant response rating (cocklebur; [5]): 30
- Cocklebur plant response rating (cocklebur; [6]): 20
- Wheat plant response rating (wheat; [8]): 100
- Wheat plant response rating (wheat; [5]): 20
- Wheat plant response rating (wheat; [6]): 10
- Plant response rating (0 to 100 scale), Morningglory (morningglory; [7]): 40
- Morningglory plant response rating (morningglory; [5]): 80
- Morningglory plant response rating (morningglory; [6]): 80
- Plant response rating (0 to 100 scale), Barnyardgrass (barnyardgrass [1]; [4]): 70
- Barnyardgrass plant response rating (barnyardgrass [1]; [9]): 20
- Barnyardgrass plant response rating (barnyardgrass [1]; [5]): 20
- Rice plant response rating (rice): 60
- Blackgrass plant response rating (blackgrass; [5]): 30
- Blackgrass plant response rating (blackgrass; [6]): 10
- Plant response rating (0 to 100 scale), Foxtail, Giant (giant foxtail; [4]): 80
- Foxtail, Giant plant response rating (giant foxtail; [5]): 40
- Foxtail, Giant plant response rating (giant foxtail; [6]): 20
- Barnyardgrass plant response rating (barnyardgrass [2]): 80
- Plant response rating (0 to 100 scale), Velvetleaf (velvetleaf; [10]): 50
- Velvetleaf plant response rating (velvetleaf; [5]): 40
- Velvetleaf plant response rating (velvetleaf; [6]): 20
- Sedge, Umbrella plant response rating [3]: 80

Structure (SMILES): CCn1nc(C(C)(C)C)cc1C(=O)Nc1cc(C#N)ccc1F [Compound 140]
- Plant response rating, Surinam Grass (Surinam grass; [11]): 60
- Surinam Grass plant response rating (Surinam grass; [12]): 0
- Surinam Grass plant response rating (Surinam grass; [13]): 0
- Plant response rating, Surinam Grass (Surinam grass; [14]): 0
- Oat, Wild plant response rating (wild oat; [12]): 0
- Oat, Wild plant response rating (wild oat; [13]): 0
- Plant response rating, Pigweed (pigweed; [11]): 80
- Pigweed plant response rating (pigweed; [12]): 0
- Pigweed plant response rating (pigweed; [13]): 0
- Plant response rating, Pigweed (pigweed; [14]): 0
- Plant response rating, Lambsquarters (lambsquarters; [11]): 100
- Lambsquarters plant response rating (lambsquarters; [12]): 20
- Lambsquarters plant response rating (lambsquarters; [13]): 80
- Plant response rating, Lambsquarters (lambsquarters; [14]): 0
- Ducksalad plant response rating (ducksalad; visual rating, 13 to 15 days): 80
- Plant response rating, Cocklebur (cocklebur; [11]): 80
- Cocklebur plant response rating (cocklebur; [12]): 0
- Cocklebur plant response rating (cocklebur; [13]): 20
- Wheat plant response rating (wheat; [13]): 0
- Morningglory plant response rating (morningglory; [12]): 0
- Morningglory plant response rating (morningglory; [13]): 0
- Plant response rating, Barnyardgrass (barnyardgrass [1]; [11]): 80
- Barnyardgrass plant response rating (barnyardgrass [1]; [12]): 0
- Barnyardgrass plant response rating (barnyardgrass [1]; [13]): 0
- Plant response rating, Barnyardgrass (barnyardgrass [1]; [14]): 20
- Rice plant response rating (rice; visual rating, 13 to 15 days): 30
- Blackgrass plant response rating (blackgrass; [12]): 0
- Blackgrass plant response rating (blackgrass; [13]): 0
- Plant response rating, Foxtail, Giant (giant foxtail; [11]): 80
- Foxtail, Giant plant response rating (giant foxtail; [12]): 0
- Foxtail, Giant plant response rating (giant foxtail; [13]): 0
- Plant response rating, Foxtail, Giant (giant foxtail; [14]): 0
- Barnyardgrass plant response rating (barnyardgrass [2]; visual rating, 13 to 15 days): 70
- Plant response rating, Velvetleaf (velvetleaf; 500 g ai/ha, visual rating 0-100, 0 no effect, 100 complete control): 20
- Velvetleaf plant response rating (velvetleaf; [12]): 0
- Velvetleaf plant response rating (velvetleaf; [13]): 0
- Plant response rating, Velvetleaf (velvetleaf; 125 g ai/ha, 0 to 100 scale, 0 is no effect, 100 is complete control): 0
- Sedge, Umbrella plant response rating ([3]; visual rating, 13 to 15 days): 80

Structure (SMILES): CCN1N=C(C(C)(C)C)CC1C(=O)Nc1cc(C(=O)N2CCCC2)ccc1F (racemic) [Compound 309]
- Surinam Grass plant response rating (0 to 100 scale) (Surinam grass; [15]): 60
- Surinam Grass plant response rating (Surinam grass; [16]): 10
- Plant response rating, Surinam Grass (Surinam grass; [17]): 100
- Surinam Grass plant response rating (Surinam grass; [18]): 40
- Oat, Wild plant response rating (wild oat; [16]): 20
- Oat, Wild plant response rating (wild oat; [18]): 40
- Pigweed plant response rating (0 to 100 scale) (pigweed; [15]): 70
- Pigweed plant response rating (pigweed; [16]): 50
- Plant response rating, Pigweed (pigweed; [17]): 100
- Pigweed plant response rating (pigweed; [18]): 70
- Lambsquarters plant response rating (0 to 100 scale) (lambsquarters; [15]): 90
- Lambsquarters plant response rating (lambsquarters; [16]): 40
- Plant response rating, Lambsquarters (lambsquarters; [17]): 90
- Lambsquarters plant response rating (lambsquarters; [18]): 80
- Ducksalad plant response rating (ducksalad): 90
- Cocklebur plant response rating (0 to 100 scale) (cocklebur; [15]): 30
- Cocklebur plant response rating (cocklebur; [16]): 40
- Plant response rating, Cocklebur (cocklebur; [17]): 80
- Cocklebur plant response rating (cocklebur; [18]): 70
- Wheat plant response rating (wheat; [16]): 20
- Wheat plant response rating (wheat; [18]): 30
- Morningglory plant response rating (0 to 100 scale) (morningglory; [15]): 0
- Morningglory plant response rating (morningglory; [16]): 0
- Plant response rating, Morningglory (morningglory; [17]): 0
- Morningglory plant response rating (morningglory; [18]): 40
- Barnyardgrass plant response rating (0 to 100 scale) (barnyardgrass [1]; [15]): 80
- Barnyardgrass plant response rating (barnyardgrass [1]; [16]): 20
- Plant response rating, Barnyardgrass (barnyardgrass [1]; [17]): 100
- Barnyardgrass plant response rating (barnyardgrass [1]; [18]): 40
- Rice plant response rating (rice): 80
- Blackgrass plant response rating (blackgrass; [16]): 10
- Blackgrass plant response rating (blackgrass; [18]): 30
- Foxtail, Giant plant response rating (0 to 100 scale) (giant foxtail; [15]): 80
- Foxtail, Giant plant response rating (giant foxtail; [16]): 20
- Plant response rating, Foxtail, Giant (giant foxtail; [17]): 100
- Foxtail, Giant plant response rating (giant foxtail; [18]): 40
- Barnyardgrass plant response rating (barnyardgrass [2]): 90
- Velvetleaf plant response rating (velvetleaf; [16]): 20
- Plant response rating, Velvetleaf (velvetleaf; 500 g ai/ha, visual rating, 0 = no effect, 100 = complete control): 100
- Velvetleaf plant response rating (velvetleaf; [18]): 40
- Sedge, Umbrella plant response rating [3]: 80
